Laboratory results reported in patent US9447082B2, “Optically active fluconazole analogues containing thiophenes as antifungal agents” (FDC Limited, priority 2011, dated 2016).
≈ marks a conversion by molar mass, not a printed value.

Experiments:
[1] = system: Aspergillus niger ATCC 16404; experiment: MIC by broth dilution, A. niger ATCC 16404; details: for MIC50: Aspergillus niger, ATCC16404, 48 h, pH 7
[2] = system: C. glabrata ATCC 90030; experiment: MIC by broth dilution, C. glabrata ATCC 90030; details: for MIC50: Nakaseomyces glabratus, ATCC90030, 48 h, pH 7
[3] = system: C. Krusei ATCC 6258; experiment: MIC by broth dilution, C. krusei ATCC 6258; details: for MIC50: Pichia kudriavzevii, ATCC6258, 48 h, pH 7
[4] = system: C. albicans ATCC 2091; experiment: MIC by broth dilution, C. albicans ATCC 2091; details: for MIC50: Candida albicans, ATCC2091, 48 h, pH 7
[5] = system: Candida albicans ATCC 24433; experiment: MIC by broth dilution, C. albicans ATCC 24433; details: for MIC50: Candida albicans, ATCC24433, 48 h, pH 7
[6] = system: C. albicans ATCC 10231; experiment: MIC by broth dilution, C. albicans ATCC 10231; details: for MIC50: Candida albicans, ATCC10231, 48 h, pH 7
[7] = system: Cryptococcus neoformans ATCC 34664; experiment: MIC by broth dilution, C. neoformans ATCC 34664; details: for MIC50: Cryptococcus neoformans, ATCC34664, 48 h, pH 7
[8] = system: Fusarium proliferatum ATCC 10052; experiment: MIC by broth dilution, F. proliferatum ATCC 10052; details: for MIC50: Fusarium proliferatum, ATCC10052, 48 h, pH 7
[9] = system: Aspergillus fumigatus ATCC 46645; experiment: MIC by broth dilution, A. fumigatus ATCC 46645; details: for MIC50: Aspergillus fumigatus, ATCC46645, 48 h, pH 7
[10] = system: C. albicans ATCC 90028; experiment: MIC by broth dilution, C. albicans ATCC 90028; details: for MIC50: Candida albicans, ATCC90028, 48 h, pH 7
[11] = system: C. tropicalis ATCC 750; experiment: MIC by broth dilution, C. tropicalis ATCC 750; details: for MIC50: Candida tropicalis, ATCC750, 48 h, pH 7

SMILES | MIC50 [1] | MIC50 [2] | MIC50 [3] | MIC50 [4] | MIC50 [5] | MIC50 [6] | MIC50 [7] | MIC50 [8] | MIC50 [9] | MIC50 [10] | MIC50 [11] | further results
Cc1cc(C#N)c(NC[C@](O)(Cn2cncn2)c2ccc(F)cc2F)s1 [Compound 1a-01, (S)-2-((2-(2,4-Difluorophenyl)-2-hydroxy-3-(1H-1,2,4-triazol-1-yl)propyl)amino)-5-methylthiophene-3-carbonitrile] | > 64 µg/mL | 0.12 µg/mL (≈ 0.32 µM) | 32 µg/mL (≈ 85.2 µM) | 0.25 µg/mL (≈ 0.666 µM) | 0.12 µg/mL (≈ 0.32 µM) | 0.25 µg/mL (≈ 0.666 µM) | 2 µg/mL (≈ 5.33 µM) | > 64 µg/mL | > 64 µg/mL | 0.25 µg/mL (≈ 0.666 µM) | 2 µg/mL (≈ 5.33 µM) | –
CCCc1cc(C#N)c(NC[C@](O)(Cn2cncn2)c2ccc(F)cc2F)s1 [Compound 1a-02, (S)-2-((2-(2,4-Difluorophenyl)-2-hydroxy-3-(1H-1,2,4-triazol-1-yl)propyl)amino)-5-propylthiophene-3-carbonitrile] | 8 µg/mL (≈ 19.8 µM) | 0.12 µg/mL (≈ 0.297 µM) | 8 µg/mL (≈ 19.8 µM) | 0.12 µg/mL (≈ 0.297 µM) | 0.06 µg/mL (≈ 0.149 µM) | 0.12 µg/mL (≈ 0.297 µM) | 0.5 µg/mL (≈ 1.24 µM) | > 16 µg/mL | > 16 µg/mL | 0.06 µg/mL (≈ 0.149 µM) | 2 µg/mL (≈ 4.96 µM) | –
CCCc1cc(C#N)c(NC[C@@](O)(Cn2cncn2)c2ccc(F)cc2F)s1 [Compound 1b-02, (R)-2-((2-(2,4-Difluorophenyl)-2-hydroxy-3-(1H-1,2,4-triazol-1-yl)propyl)amino)-5-propylthiophene-3-carbonitrile] | > 8 µg/mL | 0.5 µg/mL (≈ 1.24 µM) | > 8 µg/mL | 1 µg/mL (≈ 2.48 µM) | 0.5 µg/mL (≈ 1.24 µM) | 1 µg/mL (≈ 2.48 µM) | 8 µg/mL (≈ 19.8 µM) | > 128 µg/mL | 8 µg/mL (≈ 19.8 µM) | 0.5 µg/mL (≈ 1.24 µM) | > 8 µg/mL | –
C[C@@H]1[C@H](O)[C@@H](C)/C=C/C=C/C=C/C=C/C=C/C=C/C=C/[C@H](O[C@@H]2O[C@H](C)[C@@H](O)[C@H](N)[C@@H]2O)C[C@@H]2O[C@](O)(C[C@@H](O)C[C@@H](O)[C@H](O)CC[C@@H](O)C[C@@H](O)CC(=O)O[C@H]1C)C[C@H](O)[C@H]2C(=O)O [AMB, Amphotericin-B] | – | – | – | – | – | – | – | – | – | – | – | MIC50 (Amphotericin B: MIC, complete inhibition) ([1]; A. niger ATCC 16404, 48 hours, concentration exhibiting complete inhibition): 0.25 µg/mL (≈ 0.271 µM); MIC50 (Amphotericin B: MIC, complete inhibition) ([2]; C. glabrata ATCC 90030, 48 hours, concentration exhibiting complete inhibition): 0.25 µg/mL (≈ 0.271 µM); MIC50 (Amphotericin B: MIC, complete inhibition) ([3]; C. krusei ATCC 6258, 48 hours, concentration exhibiting complete inhibition): 0.5 µg/mL (≈ 0.541 µM); MIC50 (Amphotericin B: MIC, complete inhibition) ([4]; C. albicans ATCC 2091, 48 hours, concentration exhibiting complete inhibition): 0.5 µg/mL (≈ 0.541 µM); MIC50 (Amphotericin B: MIC, complete inhibition) ([5]; C. albicans ATCC 24433, 48 hours, concentration exhibiting complete inhibition): 0.25 µg/mL (≈ 0.271 µM); MIC50 (Amphotericin B: MIC, complete inhibition) ([6]; C. albicans ATCC 10231, 48 hours, concentration exhibiting complete inhibition): 0.5 µg/mL (≈ 0.541 µM); MIC50 (Amphotericin B: MIC, complete inhibition) ([7]; C. neoformans ATCC 34664, 48 hours, concentration exhibiting complete inhibition): 0.5 µg/mL (≈ 0.541 µM); MIC50 (Amphotericin B: MIC, complete inhibition) ([8]; F. proliferatum ATCC 10052, 48 hours, concentration exhibiting complete inhibition): 2 µg/mL (≈ 2.16 µM); MIC50 (Amphotericin B: MIC, complete inhibition) ([9]; A. fumigatus ATCC 46645, 48 hours, concentration exhibiting complete inhibition): 0.5 µg/mL (≈ 0.541 µM); MIC50 (Amphotericin B: MIC, complete inhibition) ([10]; C. albicans ATCC 90028, 48 hours, concentration exhibiting complete inhibition): 0.5 µg/mL (≈ 0.541 µM); MIC50 (Amphotericin B: MIC, complete inhibition) ([11]; C. tropicalis ATCC 750, 48 hours, concentration exhibiting complete inhibition): 0.5 µg/mL (≈ 0.541 µM)
CCCCCc1cc(C#N)c(NC[C@](O)(Cn2cncn2)c2ccc(F)cc2F)s1 [Compound 1a-04, (S)-2-((2-(2,4-Difluorophenyl)-2-hydroxy-3-(1H-1,2,4-triazol-1-yl)propyl)amino)-5-pentylthiophene-3-carbonitrile] | > 8 µg/mL | 0.12 µg/mL (≈ 0.278 µM) | 4 µg/mL (≈ 9.27 µM) | 0.5 µg/mL (≈ 1.16 µM) | 0.12 µg/mL (≈ 0.278 µM) | 0.5 µg/mL (≈ 1.16 µM) | 1 µg/mL (≈ 2.32 µM) | > 8 µg/mL | > 8 µg/mL | 0.25 µg/mL (≈ 0.579 µM) | 1 µg/mL (≈ 2.32 µM) | –
OC(Cn1cncn1)(Cn1cncn1)c1ccc(F)cc1F [FLU, Fluconazole] | > 128 µg/mL | 4 µg/mL (≈ 13.1 µM) | 64 µg/mL (≈ 209 µM) | 0.5 µg/mL (≈ 1.63 µM) | 0.5 µg/mL (≈ 1.63 µM) | 0.5 µg/mL (≈ 1.63 µM) | 2 µg/mL (≈ 6.53 µM) | > 128 µg/mL | > 128 µg/mL | 0.5 µg/mL (≈ 1.63 µM) | 2 µg/mL (≈ 6.53 µM) | –
CCCCc1cc(C#N)c(NC[C@](O)(Cn2cncn2)c2ccc(F)cc2F)s1 [Compound 1a-03, (S)-5-Butyl-2-((2-(2,4-difluorophenyl)-2-hydroxy-3-(1H-1,2,4-triazol-1-yl)propyl)amino)thiophene-3-carbonitrile] | > 4 µg/mL | 0.06 µg/mL (≈ 0.144 µM) | 4 µg/mL (≈ 9.58 µM) | 0.12 µg/mL (≈ 0.287 µM) | 0.06 µg/mL (≈ 0.144 µM) | 0.06 µg/mL (≈ 0.144 µM) | 0.5 µg/mL (≈ 1.2 µM) | > 4 µg/mL | > 4 µg/mL | 0.06 µg/mL (≈ 0.144 µM) | 0.5 µg/mL (≈ 1.2 µM) | –

The next lines start with results.

MIC50 [1] | MIC50 [2] | MIC50 [3] | MIC50 [4] | MIC50 [5] | MIC50 [6] | MIC50 [7] | MIC50 [8] | MIC50 [9] | MIC50 [10] | MIC50 [11] | SMILES | further results
> 64 µg/mL | 0.25 µg/mL (≈ 0.666 µM) | 64 µg/mL (≈ 170 µM) | 0.5 µg/mL (≈ 1.33 µM) | 0.25 µg/mL (≈ 0.666 µM) | 0.5 µg/mL (≈ 1.33 µM) | 4 µg/mL (≈ 10.7 µM) | > 64 µg/mL | > 64 µg/mL | 0.5 µg/mL (≈ 1.33 µM) | 4 µg/mL (≈ 10.7 µM) | Cc1cc(C#N)c(NCC(O)(Cn2cncn2)c2ccc(F)cc2F)s1 (racemic) [Compound 2-01] | –
> 4 µg/mL | 0.12 µg/mL (≈ 0.287 µM) | 8 µg/mL (≈ 19.2 µM) | 0.25 µg/mL (≈ 0.599 µM) | 0.12 µg/mL (≈ 0.287 µM) | 0.12 µg/mL (≈ 0.287 µM) | 1 µg/mL (≈ 2.4 µM) | > 4 µg/mL | > 4 µg/mL | 0.12 µg/mL (≈ 0.287 µM) | 1 µg/mL (≈ 2.4 µM) | CCCCc1cc(C#N)c(NCC(O)(Cn2cncn2)c2ccc(F)cc2F)s1 (racemic) [Compound 2-03] | –
4 µg/mL (≈ 9.91 µM) | 0.12 µg/mL (≈ 0.297 µM) | 8 µg/mL (≈ 19.8 µM) | 0.12 µg/mL (≈ 0.297 µM) | 0.06 µg/mL (≈ 0.149 µM) | 0.12 µg/mL (≈ 0.297 µM) | 1 µg/mL (≈ 2.48 µM) | > 16 µg/mL | > 16 µg/mL | 0.12 µg/mL (≈ 0.297 µM) | 2 µg/mL (≈ 4.96 µM) | CCCc1cc(C#N)c(NCC(O)(Cn2cncn2)c2ccc(F)cc2F)s1 (racemic) [Compound 2-02] | –
